“Also recorded” adds a separate entry of the source. Counter-ions that a name gives are not always drawn.
Key:
Assay type in all cases: cell-based
[1] = system: Human iPSC-derived RPE cells; assay: Mitochondrial respiration (Seahorse XF) after TBHP in iPSC-derived RPE
Experimental: Human iPSC-derived RPE cells were preincubated with 3 μM ciclopirox olamine for 18 hours, then treated with 500 μM tert-butyl hydroperoxide (TBHP) for 24 hours. Oxygen consumption rate was determined using the Seahorse XF analyzer to measure mitochondrial function. FIG. 7A depicts basal respiration. FIG. 7B depicts maximal oxygen consumption rate (OCR). FIG. 7C depicts spare respiratory capacity. FIG. 7D depicts ATP production.
Human iPSCs were derived from fibroblasts of a donor with no history of retinal disease. A skin specimen was processed as previously described. Briefly, the skin biopsy was transplanted onto a culture plate and fibroblasts were grown to confluence and then treated with four Yamanaka factors, Oct3/4, Sox-2, Klf4, and c-Myc using the CytoTune™-iPS 2.0 Sendai Reprogramming Kit according to the manufacturer's instructions (Invitrogen-Gibco, Life Technologies=) (31-36). Newly generated iPSC colonies were purified and expanded using MTeSR1™ media (Stem Cell Technologies, Vancouver, Canada).
Human iPSCs were differentiated to iPSC-derived RPE cells as previously described. Human iPSC colonies were lifted and grown as embryoid bodies (EBs) for 4 days in EB formation medium (STEMCELL Technologies). After 5 days, EB medium was replaced with neural induction medium (NIM) containing DMEM/F12 (1:1), 1% N-2 supplement (MEM non-essential amino acids and 2 μg/mL heparin) and suspended EB aggregates were plated onto laminin-coated culture plates and allowed to reattach. After 16 days, neural induction medium was replaced with retinal differentiation medium (RDM) containing DMEM/F12 (3:1), 2% B-27 supplement (Invitrogen-Gibco, Life Technologies), MEM non-essential amino acids and penicillin/streptomycin. The adherent culture was maintained in RDM until the appearance of pigmented iPSC-derived RPE cells. Patches of pigmented iPSC-derived RPE cells were then micro-dissected and cultured on Transwell® plates with RDM+10% fetal bovine serum (FBS) for 2 days and then switched to RDM with 2% FBS until the cells were confluent. Human iPSC-derived RPE cells were then maintained in RDM and allowed to form monolayers within 90 days.
(§1) Analysis of mitochondrial function was performed on live cells using XFe96 Extracellular Flux Analyzer (Seahorse Bioscience) using the cell mito stress test (CMST). Human ARPE-19 cells or iPSC-derived RPE were seeded in a 96 well plate and grown for 24 h. Cells were preincubated with compound or no compound for 24 hours and then exposed to varying concentrations of TBHP the next day for 24 hours. Cells were the washed with CMST assay medium (XF base medium DMEM supplemented with 2 mM glutamine, 5.5 mM glucose, and 1 mM sodium pyruvate, pH 7.4), and then incubated in CMST medium for 1 h at 37° C. in a non-CO2 incubator. The CMST assay protocol was performed by manufacturer guidance (Seahorse Bioscience). Oxygen consumption rate (OCR) was detected under basal conditions followed by the sequential addition of oligomycin, carbonyl cyanide 4-(trifluoromethoxy) phenylhydrazone (FCCP), as well as rotenone and antimycin A. The measured parameters include: basal respiration, adenosine triphosphate (ATP) production, maximal respiration, spare respiratory capacity.
(§2) Human iPSC-derived RPE cells were preincubated with 0.6 μM of compound 414 or compound 434 for 18 hours, then treated with 300 μM TBHP for 24 hours and oxygen consumption rate determined using the Seahorse XF analyzer.

Human ARPE-19 cells [2] = assay: Mitochondrial respiration (Seahorse XF, oxygen consumption rate) after TBHP in ARPE-19
Experimental: as §1
Human ARPE-19 cells were preincubated with 3 μM ciclopirox olamine for 18 hours, then treated with 500 μM TBHP for 24 hours and oxygen consumption rate determined using the Seahorse XF analyzer.
as §2, with “The effects of compound treatment on mitochondrial function in human RPE cells were investigated. Human” for “Human”, “ARPE-19” for “iPSC-derived RPE”

Human ARPE-19 cells [3] = assay: TBHP-induced oxidative stress cell viability assay (RealTime-Glo) in ARPE-19; conditions: for protection from oxidative stress-induced cell death: 0.9 μM 24 h preincubation, 400 μM TBHP 24 h; for protection from TBHP-induced cell death in screen of 65,000 compound Chemical Diversity library: initial high-throughput screening
Experimental: Immortalized human RPE cells (ARPE-19) obtained from the American Type Culture Collection (ATCC, Manassas, VA, USA) were cultured in Dulbecco's modified Eagle's medium (DMEM; Thermo Fisher Scientific, Waltham, MA) containing 10% fetal bovine serum (FBS), 100 IU/mL penicillin, 100 μg/mL streptomycin, 100 μg/mL gentamicin, and 2.5 μg/mL amphotericin B (Thermo Fisher Scientific).
Human ARPE-19 cells were plated in 96-well plates for 24 hours in DMEM supplemented with FBS and antibiotics. ARPE-19 cells were preincubated with either ciclopirox olamine (Sigma), compound 414 (Chemical Diversity, San Diego, CA), compound 434 (Chemical Diversity) or no compound for 24 hours and then exposed to varying concentrations of tert-butyl hydroperoxide (TBHP; Sigma-Aldrich, St. Louis, MO) the next day for 24 hours. Cell viability was measured the following day by RealTime-Glo™ MT cell viability assay (Promega, Madison, WI) using a BioTek FLx800™ fluorescence reader (BioTek, Winooski, VT).
Initial screening of a library with 640 FDA-approved drugs (Enzo Life Sciences FDA-approved drug library) with known bioactivity, safety & bioavailability, and natural products was performed using TBHP, a chemical oxidizing agent, as a model of oxidative stress-induced cell death.
Initial screening of a library with 65,000 synthetic compounds (Chemical Diversity library) using tert-butyl hydroperoxide (TBHP), a chemical oxidizing agent, as a model of oxidative stress-induced cell death.

Human ARPE-19 cells [4] = assay: UV-B radiation damage in ARPE-19; conditions: then 1200 mJ/cm^2 UV-B
Experimental: Human ARPE-19 cells were plated in 96-well plates for 24 hours in DMEM supplemented with FBS and antibiotics. ARPE-19 cells were preincubated with compound or no compound for 24 hours and then exposed to 1200 mJ/cm^2 ultraviolet B (UV-B) radiation in a chamber. Cell viability was measured the following day by […] MT cell viability assay (Promega) using a BioTek FLx800™ fluorescence reader (BioTek, Winooski, VT).
Human ARPE-19 cells were then preincubated with 3 μM of ciclopirox olamine for 24 hours and then exposed to 1200 mJ/cm^2 of UV-B radiation. Ciclopirox olamine protects human ARPE-19 cells exposed to 1200 mJ/cm^2 UV-B radiation (FIG. 6).
To confirm the results using TBHP, another model of oxidative stress in which human RPE cells are exposed to UV-B light was employed. […] Human ARPE-19 cells were then preincubated with 0.6 μM of compound 414 and compound 434 for 24 hours and then exposed to 1200 mJ/cm^2 of UV-B radiation. Compound 414 and compound 434 protective human ARPE-19 cells exposed to 1200 mJ/cm^2 UV-B radiation (FIG. 11).

[5] = 0.6 μM 18 h, then 300 μM TBHP 24 h
[6] = 3 μM 18 h, then 500 μM TBHP 24 h
[7] = 3 μM 18 h, then 500 μM TBHP 24 h, vs TBHP-treated group

## CCc1cccc(C)c1Nc1c(-c2cc(Br)ccc2O)nc2ncccn12 [compound 414]
[1]; [5]
  ATP production: significantly increased
  basal respiration: significantly increased
  maximal OCR: significantly increased
  reserve capacity: significantly increased
Human ARPE-19 cells [2]; [5]
  ATP production: significantly increased
  basal respiration: significantly increased
  maximal OCR: significantly increased
  reserve capacity: significantly increased
Human ARPE-19 cells [3]; ARPE-19
  protection from oxidative stress-induced cell death: Protective effects
  protection from TBHP-induced cell death in screen of 65,000 compound Chemical Diversity library: significantly protects
Human ARPE-19 cells [3]; ARPE-19, compound preincubation, TBHP 24 h (FIG. 8: 0.6 μM, 300 μM TBHP)
  cell viability after challenge with TBHP (luminescence); protection from oxidative stress-induced cell death: protects; also recorded: significantly enhances cell viability
Human ARPE-19 cells [4]; 0.6 μM 24 h
  protection from UV-B radiation damage: protective

## Cc1cc(C2CCCCC2)n(O)c(=O)c1 [ciclopirox olamine, 6-cyclohexyl-1-hydroxy-4-methyl-2(1H)-pyridone, ethanolamine salt, reference compound]
[1]; [6]
  ATP production: significantly increased
  basal respiration: significantly increased
  maximal OCR: significantly increased
  reserve capacity: significantly increased
Human ARPE-19 cells [2]; [7]
  ATP turnover: significantly increased
  basal respiration: significantly increased
  maximal OCR: significantly increased
  reserve capacity: significantly increased
Human ARPE-19 cells [3]; ARPE-19, ciclopirox olamine preincubation 24 h, then TBHP 24 h (FIG. 1: 0.9 μM, 300 μM TBHP)
  cell viability after challenge with TBHP (luminescence); protection from oxidative stress-induced cell death: protects; also recorded: significantly enhances cell viability
Human ARPE-19 cells [3]; ARPE-19, initial library screening
  protection from TBHP-induced cell death in screen of 640 FDA-approved drug library: significantly protects
Human ARPE-19 cells [3]; human RPE cells, ciclopirox olamine alone, no TBHP
  cell viability, treatment alone compared to no treatment: significantly enhances cell viability
Human ARPE-19 cells [4]; 3 μM 24 h
  protection from UV-B radiation damage: protects

## CCc1cccc(C)c1Nc1c(-c2cc(Br)ccc2O)nc2nc(C)cc(C)n12 [compound 434]
[1]; [5]
  ATP production: significantly increased
  basal respiration: significantly increased
Human ARPE-19 cells [2]; [5]
  ATP production: significantly increased
  basal respiration: significantly increased
  maximal OCR: significantly increased
  reserve capacity: significantly increased
Human ARPE-19 cells [3]; ARPE-19
  protection from oxidative stress-induced cell death: Protective effects
  protection from TBHP-induced cell death in screen of 65,000 compound Chemical Diversity library: significantly protects
Human ARPE-19 cells [4]; 0.6 μM 24 h
  protection from UV-B radiation damage: protective
